The values below come from patent US11407738B2 (Achillion Pharmaceuticals, Inc., priority 2015, dated 2022).

pIC50: −log10 of the molar value. Bounds are passed on as bounds.

For the first assay, the target named is Human Factor D (Homo sapiens (Human), UniProt P00746). Nature of the assay: Human Factor D assay. The format is biochemical. The conditions noted are these: Table 3; Factor D inhibition, substrate Z-L-Lys-SBzl. On the procedure: Human Factor D (purified from human serum, Complement Technology, Inc.) at 80 nM final concentration is incubated with test compound at various concentrations for 5 min at room temperature in 50 mM Tris, 1M NaCl, pH 7.5. A synthetic substrate Z-L-Lys-SBzl and DTNB (Ellman's reagent) are added to final concentrations of 100 μM each. […] IC50 values are calculated by nonlinear regression of complement Factor D reaction rates as a function of test compound concentration.
Chain of Human Factor D (P00746 26-253): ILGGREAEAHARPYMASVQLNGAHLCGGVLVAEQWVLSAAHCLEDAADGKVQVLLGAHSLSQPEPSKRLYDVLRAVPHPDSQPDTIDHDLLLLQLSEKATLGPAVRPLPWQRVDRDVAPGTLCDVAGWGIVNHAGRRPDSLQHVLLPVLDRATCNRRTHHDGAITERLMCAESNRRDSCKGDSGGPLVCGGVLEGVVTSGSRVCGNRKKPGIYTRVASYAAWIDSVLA
Turning to `CC(=O)c1nn(CC(=O)N2C[C@H](F)C[C@H]2C(=O)N2CCn3c(nnc3C(F)(F)F)C2)c2ccc(-c3cnc(C)nc3)cc12` [Compound 524, 2-(3-acetyl-5-(2-methylpyrimidin-5-yl)-1H-indazol-1-yl)-1-((2S,4R)-4-fluoro-2-(3-(trifluoromethyl)-5,6,7,8-tetrahydro-[1,2,4]triazolo[4,3-a]pyrazine-7-carbonyl)pyrrolidin-1-yl)ethanone], the pIC50 – broadly, the negative decadic logarithm of the IC50, by convention in mol/L – was below 5.00.

`CC(=O)c1nn2c3ccc(cc13)-c1cnc(nc1)NCCCCCCCCC/C=C\c1cc(Cl)c(F)c(c1)CNC(=O)[C@@H]1C[C@@H](F)CN1C(=O)C2` [Compound 518, (5^2S,5^4R,Z)-2^3-acetyl-9^5-chloro-5^4,9^6-difluoro-2^1H-7,21-diaza-2(5,1)-indazola-1(5,2)-pyrimidina-5(1,2)-pyrrolidina-9(1,3)-benzenacyclohenico-saphan-10-ene-4,6-dione]: the negative logarithm of the IC50 (pIC50) was above 6.00.

The molecule `CC(=O)c1nn(CC(=O)N2C[C@H](F)C[C@H]2C(=O)NC2CCN(c3ccc(C(=O)O)cn3)CC2)c2ccc(-c3cnc(C)nc3)cc12` [Compound 512, 6-(4-((2S,4R)-1-(2-(3-Acetyl-5-(2-methylpyrimidin-5-yl)-1H-indazol-1-yl)acetyl)-4-fluoropyrrolidine-2-carboxamido)piperidin-1-yl)nicotinic Acid] gave a pIC50 of 5.00 to 6.00.

The same assay, now with this note: Table 4; Factor D inhibition, substrate Z-L-Lys-SBzl.
Regarding `CCOP(=O)(OCC)OC[C@@]12C[C@@H]1N(C(=O)Cn1nc(C(C)=O)c3cc(-c4cnc(C)nc4)ccc31)[C@H](C(=O)Nc1cccc(Br)n1)C2` [Compound 628, ((1S,3S,5R)-2-(2-(3-acetyl-5-(2-methylpyrimidin-5-yl)-1H-indazol-1-yl)acetyl)-3-((6-bromopyridin-2-yl)carbamoyl)-2-azabicyclo[3.1.0]hex-an-5-yl)methyl diethyl phosphate], the negative logarithm of the IC50 (pIC50) was 5.00 to 6.00.

In turn, `CC(=O)c1nn(CC(=O)N2C[C@H](F)C[C@H]2CNS(=O)(=O)c2cccc(Cl)c2F)c2ccc(-c3cnc(C)nc3)cc12` [Compound 563, N-(((2S,4R)-1-(2-(3-acetyl-5-(2-methylpyrimidin-5-yl)-1H-indazol-1-yl)acetyl)-4-fluoropyrrolidin-2-yl)methyl)-3-chloro-2-fluorobenzene-sulfonamide] gave a negative logarithm of the IC50 (pIC50) above 6.00.

On to `CC(=O)c1nn(CC(=O)NCc2ccccc2CC(=O)O)c2ccc(-c3cnc(C)nc3)cc12` [Compound 536, 2-(2-((2-(3-acetyl-5-(2-methylpyrimidin-5-yl)-1H-indazol-1-yl)acetamido)meth-yl)phenyl)acetic acid], for which the pIC50 is below 5.00.

`Cc1cccc(NC(=O)[C@@H]2CC=CCN2C(=O)Cn2cc(C(N)=O)c3cc(-c4cnc5cc(C)nn5c4)ccc32)n1` [Compound 612, (S)-5-(2-Methylpyrazolo[1,5-a]pyrimidin-6-yl)-1-(2-(2-((6-methylpyridin-2-yl)carbamoyl)-3,6-dihydropyridin-1 (2H)-yl)-2-oxoethyl)-1H-indole-3-carboxamide] gave a negative logarithm of the IC50 (pIC50) below 5.00.

In the case of `CC(=O)c1nn(CC(=O)N2C[C@H](F)C[C@H]2[C@H](O)Cc2cccc(Br)n2)c2ccc(-c3cnc(C)nc3)cc12` [Compound 540, 2-(3-Acetyl-5-(2-methylpyrimidin-5-yl)-1H-indazol-1-yl)-1-((2S,4R)-2-((R)-2-(6-bromopyridin-2-yl)-1-hydroxyethyl)-4-fluoropyrrolidin-1-yl)ethanone], the negative logarithm of the IC50 (pIC50) was 5.00 to 6.00.

For the molecule `Cc1ncc(-c2ccc3c(c2)c([C@@H](C)O)nn3CC(=O)N2C[C@H](F)C[C@H]2C(=O)O)cn1` [Compound 550, (2S,4R)-4-fluoro-1-(2-(3-((R)-1-hydroxyethyl)-5-(2-methylpyrimidin-5-yl)-1H-indazol-1-yl)acetyl)pyrrolidine-2-carboxylic acid], the negative-log IC50 (pIC50) was below 5.00.

`COc1ccc(-c2ccc3c(c2)c(C(N)=O)cn3CC(=O)N2CCC(F)CC[C@H]2C(=O)Nc2cccc(C)n2)cn1` (stereo partly drawn) [Compound 596, 1-(2-((2S)-5-Fluoro-2-((6-methylpyridin-2-yl)carbamoyl)azepan-1-yl)-2-oxoethyl)-5-(6-methoxypyridin-3-yl)-1H-indole-3-carboxamide] gave a pIC50 below 5.00.
